# Measured values published in patent publication US20130065818A1, “Arylamide Compounds And Compositions And Uses Thereof” (POLYMEDIX, priority 2006, published 2013).
# Like-named read-outs stand apart in the source and are kept apart here.
# Legend:
# [1] = test system: Staphylococcus aureus fluoroquinolone-susceptible; assay: MIC, 25 ocular isolates, broth microdilution (Example 8); assay type: cell-based
# Experimental: • Mueller-Hinton Broth in tubes was inoculated with 25 ocular isolates of Staphylococcus aureus fluoroquinolone-susceptible, Staphylococcus aureus fluoroquinolone-resistant, Staphylococcus epidermidis (Coagulase-negative Staphylococcus) fluoroquinolone-susceptible, Staphylococcus epidermidis (Coagulase-negative Staphylococcus) fluoroquinolone-resistant, Pseudomonas aeruginosa and Serratia marcescens, plus two controls (Staphylococcus aureus and E. coli) and incubated at 37° C. overnight on a shaker set at 250 rpm.
# (§1) On the day of testing, a 640 μg/ml (1280 μg/ml for Serratia marcescens and Pseudomonas aeruginosa) concentration was prepared from a 1% stock solution in 0.01% acetic acid, 0.2% BSA in polypropylene tubes.
# (§2) Serial doubling dilutions in 0.01% acetic acid, 0.2% BSA in 96 well polypropylene plates, which are used as reservoirs for the inoculation of the test plates, were carried out to obtain serial dilutions of test agents at 10 times the required test concentrations: 640, 320, 160, 80, 40, 20, 10, 5, 2.5, 1.25, and 0.625 μg/ml (1280, 640, 320, 160, 80, 40, 20, 10, 5, 2.5, and 1.25 μg/ml for Serratia marcescens and Pseudomonas aeruginosa).
# (§3) Ten μl of diluted 10×test agents was added to each well of one row of the 96 well polypropylene plates from column 2 to column 12 (column 1 is a control for bacteria alone, with no peptide). Test agent concentrations in columns 2-12 were as follows: 64, 32, 16, 8, 4, 2, 1, 0.5, 0.25, 0.125, and 0.0625 μg/ml (128, 64, 32, 16, 8, 4, 2, 1, 0.5, 0.25, and 0.125 μg/ml for Serratia marcescens and Pseudomonas aeruginosa). The same peptide was in each of the 8 rows. One plate contained dilutions of one test agent and 8 bacterial isolates.
# On the day of testing, the overnight bacterial broth cultures of Staphylococcus aureus fluoroquinolone-susceptible, Staphylococcus aureus fluoroquinolone-resistant, Staphylococcus epidermidis (Coagulase-negative Staphylococcus) fluoroquinolone-susceptible, Staphylococcus epidermidis (Coagulase-negative Staphylococcus) fluoroquinolone-resistant, Serratia marcescens, and Pseudomonas aeruginosa, plus two controls (Staphylococcus aureus and E. coli) were diluted in 5 ml of trypticase soy broth to yield turbidity equal to a 0.5 McFarland standard. The final inoculum for MIC testing for Staphylococcus aureus fluoroquinolone-susceptible, Staphylococcus aureus fluoroquinolone-resistant, Staphylococcus epidermidis (Coagulase-negative Staphylococcus) fluoroquinolone-susceptible, Staphylococcus epidermidis (Coagulase-negative Staphylococcus) fluoroquinolone-resistant, Serratia marcescens, and Pseudomonas aeruginosa was achieved by placing 0.05 ml of the turbidity adjusted sample to 5 ml of Mueller-Hinton broth.
# (§4) Ninety μl of the bacterial suspensions was dispensed in each well from column 1 to column 12. Each bacterial isolate was placed in one row of a 96 well polypropylene plate containing the test agents. The plates were placed on shaker at 15 minutes at room temperature, and then incubated at 37° C. overnight. MICs were determined visually as the lowest concentration of drug that inhibits visible bacterial growth.
# [2] = test system: Streptococcus viridans group; assay: as above; assay type: cell-based
# Experimental: Mueller-Hinton Broth supplemented with 2% lysed horse blood in tubes was inoculated with 25 ocular isolates of Streptococcus pneumoniae, Streptococcus viridans group, and Moraxella species (including Moraxella catarrhalis) plus two controls (Staphylococcus aureus and E. coli) and incubated at 37° C. overnight. Additionally, Mueller-Hinton Broth in tubes was inoculated with two controls (Staphylococcus aureus and E. coli) and incubated at 37° C. overnight on a shaker set at 250 rpm.
# as §1, §2, §3
# On the day of testing, the overnight bacterial broth cultures of Streptococcus pneumoniae, Streptococcus viridans and Moraxella species (including Moraxella catarrhalis) plus two controls (Staphylococcus aureus and E. coli) were diluted in 5 ml of trypticase soy broth to yield turbidity equal to a 0.5 McFarland standard. The final inoculum for MIC testing for Streptococcus pneumoniae, Streptococcus viridans and Moraxella species (including Moraxella catarrhalis) was achieved by placing 0.1 ml of the turbidity adjusted sample to 5 ml of Mueller-Hinton broth containing 2% lysed horse red blood cells.
# as §4
compound,measurement,setting,value
N=C(N)NCCCCC(=O)Nc1cc(C(F)(F)F)cc(NC(=O)c2cnc(C(=O)Nc3cc(C(F)(F)F)cc(NC(=O)CCCCNC(=N)N)c3SCCN)cn2)c1SCCN [Oligomer 5],MIC50,"[1]; 25 isolates, Row 13",0.25 µg/mL
same,MIC90,"[1]; 25 isolates, Row 22",0.25 µg/mL
same,Range of MICs,"[1]; 25 isolates, Summary of Results",0.125 to 0.5 µg/mL
same,MIC,"[1]; Staphylococcus aureus, 25 ocular isolates, read-out: Median MIC",≤ 0.25 µg/mL
same,MIC,"[1]; Staphylococcus aureus, isolate 1—E402, read-out: MIC",0.5 µg/mL
same,MIC,"[1]; Staphylococcus aureus, isolate 2—E1512, read-out: MIC",0.25 µg/mL
same,MIC,"[1]; Staphylococcus aureus, isolate 3—E253, read-out: MIC",0.25 µg/mL
same,MIC,"[1]; Staphylococcus aureus, isolate 4—K1518, read-out: MIC",0.125 µg/mL
same,MIC,"[1]; Staphylococcus aureus, isolate 5—K1525, read-out: MIC",0.125 µg/mL
same,MIC,"[1]; Staphylococcus aureus, isolate 6—K1663, read-out: MIC",0.125 µg/mL
same,MIC,"[1]; Staphylococcus aureus, isolate 7—K1648, read-out: MIC",0.125 µg/mL
same,MIC,"[1]; Staphylococcus aureus, isolate 8—K1646, read-out: MIC",0.25 µg/mL
same,MIC,"[1]; Staphylococcus aureus, isolate 9—K1642, read-out: MIC",0.25 µg/mL
same,MIC,"[1]; Staphylococcus aureus, isolate 10—K1638, read-out: MIC",0.25 µg/mL
same,MIC,"[1]; Staphylococcus aureus, isolate 11—K1628, read-out: MIC",0.25 µg/mL
same,MIC,"[1]; Staphylococcus aureus, isolate 12—K1618, read-out: MIC",0.125 µg/mL
same,MIC,"[1]; Staphylococcus aureus, isolate 13—K1617, read-out: MIC",0.25 µg/mL
same,MIC,"[1]; Staphylococcus aureus, isolate 14—K1611, read-out: MIC",0.25 µg/mL
same,MIC,"[1]; Staphylococcus aureus, isolate 15—K1607, read-out: MIC",0.25 µg/mL
same,MIC,"[1]; Staphylococcus aureus, isolate 16—K1600, read-out: MIC",0.125 µg/mL
same,MIC,"[1]; Staphylococcus aureus, isolate 17—K1591, read-out: MIC",0.5 µg/mL
same,MIC,"[1]; Staphylococcus aureus, isolate 18—K1585, read-out: MIC",0.25 µg/mL
same,MIC,"[1]; Staphylococcus aureus, isolate 19—K1583, read-out: MIC",0.25 µg/mL
same,MIC,"[1]; Staphylococcus aureus, isolate 20—K1574, read-out: MIC",0.25 µg/mL
same,MIC,"[1]; Staphylococcus aureus, isolate 21—K1566, read-out: MIC",0.25 µg/mL
same,MIC,"[1]; Staphylococcus aureus, isolate 22—K1551, read-out: MIC",0.125 µg/mL
same,MIC,"[1]; Staphylococcus aureus, isolate 23—K1545, read-out: MIC",0.25 µg/mL
same,MIC,"[1]; Staphylococcus aureus, isolate 24—K1540, read-out: MIC",0.25 µg/mL
same,MIC,"[1]; Staphylococcus aureus, isolate 25—K1530, read-out: MIC",0.5 µg/mL
same,MIC,"[1]; Staphylococcus aureus, n=25 per group, read-out: Median MIC",0.25 µg/mL
same,MIC50,"[1]; Staphylococcus aureus, 25 isolates, Summary of Results, read-out: MIC50",0.25 µg/mL
same,MIC90,"[1]; Staphylococcus aureus, 25 isolates, Summary of Results, read-out: MIC90",0.5 µg/mL
same,MIC,"[1]; Staphylococcus aureus, 25 isolates, Summary of Results, read-out: Median MIC",0.25 µg/mL
same,MIC50,[1]; n=25 per group,0.25 µg/mL
same,MIC90,[1]; n=25 per group,0.5 µg/mL
same,Range of MICs,[1]; n=25 per group,0.125 to 0.5 µg/mL
same,MIC50,"[2]; 25 isolates, Row 13",16 µg/mL
same,MIC90,"[2]; 25 isolates, Row 22, >64 was Replaced with 128",128 µg/mL
same,Range of MICs,"[2]; 25 isolates, Summary of Results, >64 was Replaced with 128",0.5 to 128 µg/mL
same,MIC,"[2]; Streptococcus viridans, 25 ocular isolates, Mueller-Hinton broth with 2% lysed horse red blood cells, read-out: Median MIC",16 µg/mL
same,MIC,"[2]; Streptococcus viridans, isolate 1—K1684, read-out: MIC",8 µg/mL
same,MIC,"[2]; Streptococcus viridans, isolate 2—K1680, read-out: MIC",64 µg/mL
same,MIC,"[2]; Streptococcus viridans, isolate 3—E546, read-out: MIC",8 µg/mL
same,MIC,"[2]; Streptococcus viridans, isolate 4—E272, read-out: MIC",16 µg/mL
same,MIC,"[2]; Streptococcus viridans, isolate 5—E506, read-out: MIC",> 64 µg/mL
same,MIC,"[2]; Streptococcus viridans, isolate 6—E496, read-out: MIC",0.5 µg/mL
same,MIC,"[2]; Streptococcus viridans, isolate 7—E456, read-out: MIC",16 µg/mL
same,MIC,"[2]; Streptococcus viridans, isolate 8—E432, read-out: MIC",8 µg/mL
same,MIC,"[2]; Streptococcus viridans, isolate 9—E423, read-out: MIC",> 64 µg/mL
same,MIC,"[2]; Streptococcus viridans, isolate 10—E418, read-out: MIC",> 64 µg/mL
same,MIC,"[2]; Streptococcus viridans, isolate 11—E412, read-out: MIC",8 µg/mL
same,MIC,"[2]; Streptococcus viridans, isolate 12—E409, read-out: MIC",32 µg/mL
same,MIC,"[2]; Streptococcus viridans, isolate 13—E405, read-out: MIC",> 64 µg/mL
same,MIC,"[2]; Streptococcus viridans, isolate 14—E404, read-out: MIC",> 64 µg/mL
same,MIC,"[2]; Streptococcus viridans, isolate 15—E396, read-out: MIC",32 µg/mL
same,MIC,"[2]; Streptococcus viridans, isolate 16—E262, read-out: MIC",4 µg/mL
same,MIC,"[2]; Streptococcus viridans, isolate 17—E362, read-out: MIC",16 µg/mL
same,MIC,"[2]; Streptococcus viridans, isolate 18—E359, read-out: MIC",32 µg/mL
same,MIC,"[2]; Streptococcus viridans, isolate 19—E348, read-out: MIC",16 µg/mL
same,MIC,"[2]; Streptococcus viridans, isolate 20—E344, read-out: MIC",4 µg/mL
same,MIC,"[2]; Streptococcus viridans, isolate 21—E308, read-out: MIC",4 µg/mL
same,MIC,"[2]; Streptococcus viridans, isolate 22—E294, read-out: MIC",2 µg/mL
same,MIC,"[2]; Streptococcus viridans, isolate 23—E292, read-out: MIC",0.5 µg/mL
same,MIC,"[2]; Streptococcus viridans, isolate 24—E285, read-out: MIC",0.5 µg/mL
same,MIC,"[2]; Streptococcus viridans, isolate 25—E265, read-out: MIC",8 µg/mL
same,MIC,"[2]; Streptococcus viridans, n=25 per group, read-out: Median MIC",16 µg/mL
same,MIC90,"[2]; Streptococcus viridans, 25 isolates, Summary of Results, >64 was Replaced with 128, read-out: MIC90",128 µg/mL
same,MIC50,"[2]; Streptococcus viridans, 25 isolates, Summary of Results, read-out: MIC50",16 µg/mL
same,MIC,"[2]; Streptococcus viridans, 25 isolates, Summary of Results, read-out: Median MIC",16 µg/mL
same,MIC50,[2]; n=25 per group,16 µg/mL
same,MIC90,[2]; n=25 per group,128 µg/mL
same,Range of MICs,[2]; n=25 per group,0.5 to 128 µg/mL
